Data: patent US11000033B2, “Ketone or oxime compound, and herbicide” (NISSAN CHEMICAL CORPORATION, priority 2014, dated 2021)

How the values were obtained:
Assay type in all cases: in vivo
[1] = test system: Scirpus juncoides; test: Test Example 2: herbicidal activity, application during weed generation in submerged conditions (symbol B); conditions: Table 23; application herbicide amount 320 g/ha; grade 0-5 by criteria of Test Example 1
How it was run: (§1)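 Submerged alluvial soil (4 cm) sown with mixed seed; greenhouse 25–30° C. 1–2 leaf: diluted emulsion onto water surface, preset dose. Visual score, 3 wk.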

[2] = test system: Amaranthus retroflexus; test: Test Example 4: herbicidal effect by soil treatment (symbol N); conditions: for N (Amaranthus retroflexus) herbicidal effect grade: application herbicide amount 320 g/ha
How it was run: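 Seeds were sown in sterilized diluvial soil, covered with about 1.5 cm of soil, and the soil surface was sprayed with a water-diluted emulsion of the compound at a predetermined rate. Plants grew in a greenhouse at 25° C. to 30° C.; effects were scored visually 3 weeks after application.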

[3] = test system: rapeseed; test: Test Example 4: effect on crop by soil treatment (symbol g); conditions: for g (rapeseed) effect on crop grade: application herbicide amount 320 g/ha
How it was run: (§2)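 Plants grew in a 25° C. to 30° C. greenhouse after spot-sowing of seeds, including beet, rapeseed, wheat and rice, into sterilized diluvial soil under roughly 1.5 cm of cover soil.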

[4] = test system: Echinochloa crus-galli var. crus-galli; test: Test Example 3: herbicidal effect by foliage application, Wagner pot (symbol H); conditions: application herbicide amount 320 g/ha
How it was run: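 Steps: fill pot with alluvial soil; add water to 0.1–0.5 cm depth; sow weed and rice seed; grow 14 days at 25–30 °C; spray diluted emulsion over the leaves; rate effect after 3 weeks.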

[5] = test system: soybean; test: Test Example 4: effect on crop by soil treatment (symbol d); conditions: for d (soybean) effect on crop grade: application herbicide amount 320 g/ha
How it was run: as §2

[6] = test system: Monochoria vaginalis; test: Test Example 2: herbicidal activity, application during weed generation in submerged conditions (symbol C); conditions: Table 23; application herbicide amount 320 g/ha; grade 0-5 by criteria of Test Example 1
How it was run: as §1

[7] = test system: soybean; test: Test Example 5: effect on crop by foliage application, plastic box (symbol d); conditions: 320 g/ha, 3 weeks after application
How it was run: (§3)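 In a plastic box 7 cm deep filled with sterilized diluvial soil, seeds of crops and weeds such as Digitaria ciliaris, Avena fatua and Amaranthus retroflexus are sown in spots and covered with about 1.5 cm of soil before greenhouse growth at 25–30° C.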

[8] = test system: wheat; test: Test Example 5: effect on crop by foliage application, plastic box (symbol e); conditions: 320 g/ha, 3 weeks after application
How it was run: as §3

[9] = test system: Avena fatua; test: Test Example 5: herbicidal effect by foliage application, plastic box (symbol I); conditions: 320 g/ha, 3 weeks after application
How it was run: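 Post-emergence spray; diluvial soil (sterilized), ~1.5 cm seed cover; greenhouse 25–30° C; 14-day-old plants; water-diluted emulsion at predetermined dose; visual score at 3 wk post-treatment.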

[10] = test system: rice plant; test: Test Example 5: effect on crop by foliage application, plastic box (symbol b); conditions: 320 g/ha, 3 weeks after application
How it was run: as §3

[11] = test system: Echinochloa oryzacola Vasing.; test: Test Example 1: herbicidal activity, application before weed generation in submerged conditions (symbol A); conditions: application herbicide amount 320 g/ha
How it was run: (§4)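 In a flooded pot test with alluvial soil, the emulsion-formulated compound was diluted with water to a predetermined amount and applied to the floodwater immediately on the sowing day. Pots were held in a greenhouse at 25–30 °C for 3 weeks before each weed was rated.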

[12] = test system: Scirpus juncoides; test: Test Example 1: herbicidal activity, application before weed generation in submerged conditions (symbol B); conditions: application herbicide amount 320 g/ha
How it was run: as §4

Row | Compound | Herbicidal effect grade, B: Scirpus juncoides [1] | N (Amaranthus retroflexus) herbicidal effect grade [2] | g (rapeseed) effect on crop grade [3] | herbicidal effect on H (Echinochloa crus-galli var. crus-galli), grade 0-5 [4] | d (soybean) effect on crop grade [5] | Herbicidal effect grade, C: Monochoria vaginalis [6] | d: soybean, effect on crop grade [7] | e: wheat, effect on crop grade [8] | I: Avena fatua, herbicidal effect grade [9] | b: directly sowed rice plant, effect on crop grade [10] | Herbicidal effect grade, A: Echinochloa oryzacola Vasing. [11] | Herbicidal effect grade, B: Scirpus juncoides [12] | N: Amaranthus retroflexus, herbicidal effect grade ([2]; 320 g/ha) | g: rapeseed, effect grade on crop ([3]; 320 g/ha) | d: soybean, effect grade on crop ([5]; 320 g/ha) | d: soybean, effect on crop (criteria 0-5) [7] | e: wheat, effect on crop (criteria 0-5) [8] | I: Avena fatua, herbicidal effect (criteria 0-5) [9] | b: directly sowed rice plant, effect on crop (criteria 0-5) [10]
1 | CCCCCCCCC(=O)OC1=C(c2c(C)cc(C)cc2C)C(=O)C(CC(C)=NOC)C1 (stereo not drawn) [1-033] | 4 (Herbicidal ratio of 70% or higher and lower than 90%) | 5 (Herbicidal ratio of 90% or more (almost completely withered)) | 5 (Herbicidal ratio of 90% or more (almost completely withered)) | 5 (Herbicidal ratio of 90% or more (almost completely withered)) | 0 (Herbicidal ratio of 5% or lower (almost no effect)) | 2 (Herbicidal ratio of 20% or higher and lower than 40%) | 4 (Herbicidal ratio of 70% or higher and lower than 90%) | 5 (Herbicidal ratio of 90% or more (almost completely withered)) | 5 (Herbicidal ratio of 90% or more (almost completely withered)) | 5 (Herbicidal ratio of 90% or more (almost completely withered)) | 5 (Herbicidal ratio of 90% or more (almost completely withered)) | 4 (Herbicidal ratio of 70% or higher and lower than 90%) | – | – | – | – | – | – | –
2 | CON=C(C)CC1CC(OC(=O)C2(C)CC2(Cl)Cl)=C(c2c(C)cc(C)cc2C)C1=O (stereo not drawn) [1-036] | 4 (Herbicidal ratio of 70% or higher and lower than 90%) | 5 (Herbicidal ratio of 90% or more (almost completely withered)) | 5 (Herbicidal ratio of 90% or more (almost completely withered)) | 5 (Herbicidal ratio of 90% or more (almost completely withered)) | 0 (Herbicidal ratio of 5% or lower (almost no effect)) | 2 (Herbicidal ratio of 20% or higher and lower than 40%) | 4 (Herbicidal ratio of 70% or higher and lower than 90%) | 5 (Herbicidal ratio of 90% or more (almost completely withered)) | 5 (Herbicidal ratio of 90% or more (almost completely withered)) | 5 (Herbicidal ratio of 90% or more (almost completely withered)) | 5 (Herbicidal ratio of 90% or more (almost completely withered)) | 4 (Herbicidal ratio of 70% or higher and lower than 90%) | – | – | – | – | – | – | –
3 | CCC(C)C(CC1CC(O)=C(c2c(C)cc(C)cc2C)C1=O)=NOC (stereo not drawn) [1-066] | 0 (Herbicidal ratio of 5% or lower (almost no effect)) | 0 (Herbicidal ratio of 5% or lower (almost no effect)) | 0 (Herbicidal ratio of 5% or lower (almost no effect)) | 5 (Herbicidal ratio of 90% or more (almost completely withered)) | 0 (Herbicidal ratio of 5% or lower (almost no effect)) | 0 (Herbicidal ratio of 5% or lower (almost no effect)) | 0 (Herbicidal ratio of 5% or lower (almost no effect)) | 0 (Herbicidal ratio of 5% or lower (almost no effect)) | 4 (Herbicidal ratio of 70% or higher and lower than 90%) | 5 (Herbicidal ratio of 90% or more (almost completely withered)) | 4 (Herbicidal ratio of 70% or higher and lower than 90%) | 0 (Herbicidal ratio of 5% or lower (almost no effect)) | – | – | – | – | – | – | –
4 | CC(CC1CC(O)=C(c2c(C)cc(C)cc2C)C1=O)=NOCc1ccccc1F (stereo not drawn) [1-026] | 3 (Herbicidal ratio of 40% or higher and lower than 70%) | 0 (Herbicidal ratio of 5% or lower (almost no effect)) | 3 (Herbicidal ratio of 40% or higher and lower than 70%) | 5 (Herbicidal ratio of 90% or more (almost completely withered)) | 0 (Herbicidal ratio of 5% or lower (almost no effect)) | 3 (Herbicidal ratio of 40% or higher and lower than 70%) | 0 (Herbicidal ratio of 5% or lower (almost no effect)) | 2 (Herbicidal ratio of 20% or higher and lower than 40%) | 1 (Herbicidal ratio of 5% or higher and lower than 20%) | 5 (Herbicidal ratio of 90% or more (almost completely withered)) | 5 (Herbicidal ratio of 90% or more (almost completely withered)) | 5 (Herbicidal ratio of 90% or more (almost completely withered)) | – | – | – | – | – | – | –
5 | CON=C(C)CC1CC(OC(=O)COCc2ccccc2)=C(c2c(C)cc(C)cc2C)C1=O (stereo not drawn) [1-094] | 5 (Herbicidal ratio of 90% or more (almost completely withered)) | – | – | 5 (Herbicidal ratio of 90% or more (almost completely withered)) | – | 4 (Herbicidal ratio of 70% or higher and lower than 90%) | – | – | – | – | 5 (Herbicidal ratio of 90% or more (almost completely withered)) | 5 (Herbicidal ratio of 90% or more (almost completely withered)) | 4 (Herbicidal ratio of 70% or higher and lower than 90%) | 4 (Herbicidal ratio of 70% or higher and lower than 90%) | 1 (Herbicidal ratio of 5% or higher and lower than 20%) | 2 (Herbicidal ratio of 20% or higher and lower than 40%) | 5 (Herbicidal ratio of 90% or more (almost completely withered)) | 5 (Herbicidal ratio of 90% or more (almost completely withered)) | 5 (Herbicidal ratio of 90% or more (almost completely withered))
6 | CON=C(C)CC1CC(OC)=C(c2c(C)cc(C)cc2C)C1=O (stereo not drawn) [1-001, 2-mesityl-3-methoxy-5-{2-(methoxyimino)propyl}cyclopent-2-enone] | 0 (Herbicidal ratio of 5% or lower (almost no effect)) | 0 (Herbicidal ratio of 5% or lower (almost no effect)) | 0 (Herbicidal ratio of 5% or lower (almost no effect)) | 0 (Herbicidal ratio of 5% or lower (almost no effect)) | 0 (Herbicidal ratio of 5% or lower (almost no effect)) | 0 (Herbicidal ratio of 5% or lower (almost no effect)) | 0 (Herbicidal ratio of 5% or lower (almost no effect)) | 0 (Herbicidal ratio of 5% or lower (almost no effect)) | 0 (Herbicidal ratio of 5% or lower (almost no effect)) | 0 (Herbicidal ratio of 5% or lower (almost no effect)) | 0 (Herbicidal ratio of 5% or lower (almost no effect)) | 0 (Herbicidal ratio of 5% or lower (almost no effect)) | – | – | – | – | – | – | –
